Reference: patent publication US7074779B2, “Estrieno[3,2-b]/[3,4-c]pyrrole derivatives useful as modulators of the estrogen receptors” (Ortho-McNeil Pharmaceutical, Inc., priority 2003, dated 2006)

Target: T1, human estrogen receptor β (Homo sapiens, UniProt Q92731)
T1 construct: purchased Panvera
Experiment: Estrogen Receptor β Fluorescence Polarization Assay
Settings: displacement of Fluormone ES2; read-out: ERβ Binding IC50
From the text: This assay monitors binding of a fluorescent analog of estrogen (Fluormone ES2, Panvera) to the estrogen receptor. Plates were read in a fluorometer that can be set to polarization mode. A decrease in […] relative to vehicle control is an indication of binding of a compound to the receptor. It is crucial to avoid introduction of air bubbles into the reaction in each well of the 96 well plate throughout this procedure. (Bubbles on the surface of the reaction disrupt light flow, affecting the polarization reading.) However, it is also crucial to effectively mix the reaction components upon addition to the well. On ice, a 2× standard mixture of Assay Buffer (Panvera), 10 nM DTT and 40 nM ES2 was prepared. On ice, a 2× reaction mixture of Assay Buffer (Panvera), and 20 nM human estrogen receptor β (hER-β, Panvera) and 40 nM ES2 was also prepared. Dilutions-of test compound were prepared in 30% (v/v) dimethyl sulfoxide/50 mM HEPES, pH 7.5. At this point, the dilutions were 40× the final required concentration. The standard mixture at 50 μL was then added to each well. The reaction mixture at 48 μL was added to all wells. The compound dilution at 2.5 μL was added to the appropriate wells. The reaction mixtures were mixed using a manual pipette, a roll of aluminum foil adhesive cover was placed on the plate and the plate incubated at room temperature for 1 hour. Each well on the plate was then read in an LjL Analyst with an excitation wavelength of […] and an emission wavelength of 538.

T1 sequence (Q92731 whole entry): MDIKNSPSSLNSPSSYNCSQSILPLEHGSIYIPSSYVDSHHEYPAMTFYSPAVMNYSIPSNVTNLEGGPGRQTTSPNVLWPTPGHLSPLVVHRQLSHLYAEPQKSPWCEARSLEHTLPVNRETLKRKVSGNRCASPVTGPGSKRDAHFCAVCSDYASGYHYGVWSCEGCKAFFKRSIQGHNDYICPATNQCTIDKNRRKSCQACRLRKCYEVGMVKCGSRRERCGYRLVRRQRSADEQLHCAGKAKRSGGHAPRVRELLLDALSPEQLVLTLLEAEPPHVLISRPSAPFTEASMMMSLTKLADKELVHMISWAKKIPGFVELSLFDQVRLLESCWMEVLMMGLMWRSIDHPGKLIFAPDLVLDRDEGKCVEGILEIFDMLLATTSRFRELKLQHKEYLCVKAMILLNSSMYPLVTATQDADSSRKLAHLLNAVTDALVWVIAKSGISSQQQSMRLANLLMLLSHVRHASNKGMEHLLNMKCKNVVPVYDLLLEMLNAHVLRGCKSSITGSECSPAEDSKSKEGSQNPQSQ

| Compound | IC50 [nM] |
| --- | --- |
| C[C@]12CCC3c4cc5cc[nH]c5cc4CCC3C1CCC2=O (some centres unmarked) [Compound 3] | > 10000 |
| C[C@]12CCC3c4ccc5[nH]ccc5c4CCC3C1CCC2=O (some centres unmarked) [Compound 4] | 610 |
| C[C@]12CCC3c4ccc5[nH]ccc5c4CCC3C1CC[C@@H]2O (some centres unmarked) [Compound 6] | 91 |

The remaining lines, values ahead:

| IC50 [nM] | Compound |
| --- | --- |
| 150 | C[C@]12CCC3c4cc5cc[nH]c5cc4CCC3C1CC[C@@H]2O (some centres unmarked) [Compound 8] |
| 610 | C[C@]12CCC3c4cc5cc[nH]c5cc4CCC3C1CC[C@@H]2OC(=O)CCC(=O)O (some centres unmarked) [Compound 13] |
